Results reported in the NIST ThermoML archive (doi:10.1021/je300405a).

Conditions: Liquid; for speed of sound: Pulse-echo method; for mass density: Vibrating tube method

CCCCCCCCCC(=O)OCC [ethyl decanoate]
Conditions	mass density [kg/m3]	speed of sound [m/s]
283.15 K, 101.3 kPa	–	1352.7
283.15 K, 10000 kPa	–	1398.5
283.15 K, 20000 kPa	–	1442.3
283.15 K, 30000 kPa	–	1483.7
283.15 K, 40000 kPa	–	1522.5
283.15 K, 50000 kPa	–	1558.3
283.15 K, 60000 kPa	–	1593.9
283.15 K, 70000 kPa	–	1627
283.15 K, 80000 kPa	–	1658.8
283.15 K, 90000 kPa	–	1689.9
283.15 K, 100000 kPa	–	1720.7
283.15 K, 110000 kPa	–	1753.7
283.15 K, 120000 kPa	–	1781.4
283.15 K, 130000 kPa	–	1808.5
283.15 K, 140000 kPa	–	1834.6
283.15 K, 150000 kPa	–	1860.3
283.15 K, 170000 kPa	–	1908.7
283.15 K, 190000 kPa	–	1951.8
283.15 K, 210000 kPa	–	1998
293.15 K, 101.3 kPa	863.82	–
293.15 K, 10000 kPa	870.79	–
293.15 K, 20000 kPa	877.08	–
293.15 K, 30000 kPa	882.99	–
293.15 K, 40000 kPa	888.58	–
293.15 K, 50000 kPa	893.79	–
293.15 K, 60000 kPa	898.83	–
293.15 K, 70000 kPa	903.51	–
293.15 K, 80000 kPa	907.69	–
293.15 K, 90000 kPa	912.24	–
293.15 K, 100000 kPa	916.37	–
303.15 K, 101.3 kPa	855.53	1275
303.15 K, 10000 kPa	863.17	1325.7
303.15 K, 20000 kPa	869.73	1373.2
303.15 K, 30000 kPa	875.81	1416.8
303.15 K, 40000 kPa	881.53	1458.3
303.15 K, 50000 kPa	887	1498
303.15 K, 60000 kPa	892.12	1535.5
303.15 K, 70000 kPa	897.09	1569.9
303.15 K, 80000 kPa	901.73	1603.2
303.15 K, 90000 kPa	906.27	1635.3
303.15 K, 100000 kPa	910.56	1666.2
303.15 K, 110000 kPa	–	1696.2
303.15 K, 120000 kPa	–	1724.8
303.15 K, 130000 kPa	–	1752.9
303.15 K, 140000 kPa	–	1779.2
303.15 K, 150000 kPa	–	1805.4
303.15 K, 170000 kPa	–	1854.6
303.15 K, 190000 kPa	–	1902.4
303.15 K, 210000 kPa	–	1947.7
313.15 K, 101.3 kPa	847.99	–
313.15 K, 10000 kPa	855.19	–
313.15 K, 20000 kPa	862	–
313.15 K, 30000 kPa	868.5	–
313.15 K, 40000 kPa	874.4	–
313.15 K, 50000 kPa	880	–
313.15 K, 60000 kPa	885.4	–
313.15 K, 70000 kPa	890.5	–
313.15 K, 80000 kPa	895.4	–
313.15 K, 90000 kPa	900	–
313.15 K, 100000 kPa	904.4	–
323.15 K, 101.3 kPa	839.75	1203.1
323.15 K, 10000 kPa	847.49	1258.2
323.15 K, 20000 kPa	854.78	1309.5
323.15 K, 30000 kPa	861.46	1355.9
323.15 K, 40000 kPa	867.52	1399.1
323.15 K, 50000 kPa	873.23	1439.4
323.15 K, 60000 kPa	879.07	1478.4
323.15 K, 70000 kPa	884.28	1515.1
323.15 K, 80000 kPa	889.28	1550.3
323.15 K, 90000 kPa	894.05	1583.7
323.15 K, 100000 kPa	898.41	1615.7
323.15 K, 110000 kPa	–	1645.8
323.15 K, 120000 kPa	–	1676.7
323.15 K, 130000 kPa	–	1705.7
323.15 K, 140000 kPa	–	1733.7
323.15 K, 150000 kPa	–	1760.3
323.15 K, 170000 kPa	–	1811.6
323.15 K, 190000 kPa	–	1861.2
323.15 K, 210000 kPa	–	1909.8
333.15 K, 101.3 kPa	831.19	–
333.15 K, 10000 kPa	839.38	–
333.15 K, 20000 kPa	846.93	–
333.15 K, 30000 kPa	853.95	–
333.15 K, 40000 kPa	860.39	–
333.15 K, 50000 kPa	866.43	–
333.15 K, 60000 kPa	872.17	–
333.15 K, 70000 kPa	877.53	–
333.15 K, 80000 kPa	882.56	–
333.15 K, 90000 kPa	887.46	–
333.15 K, 100000 kPa	892.18	–
343.15 K, 101.3 kPa	822.9	1133.3
343.15 K, 10000 kPa	831.45	1192.8
343.15 K, 20000 kPa	839.59	1247
343.15 K, 30000 kPa	846.94	1297.2
343.15 K, 40000 kPa	853.75	1343
343.15 K, 50000 kPa	860.03	1385.7
343.15 K, 60000 kPa	865.88	1425.7
343.15 K, 70000 kPa	871.46	1463.9
343.15 K, 80000 kPa	876.76	1500.3
343.15 K, 90000 kPa	881.86	1535.3
343.15 K, 100000 kPa	886.72	1568.4
343.15 K, 110000 kPa	–	1600.4
343.15 K, 120000 kPa	–	1631.5
343.15 K, 130000 kPa	–	1661.5
343.15 K, 140000 kPa	–	1690
343.15 K, 150000 kPa	–	1717.3
343.15 K, 170000 kPa	–	1769.7
343.15 K, 190000 kPa	–	1818.5
343.15 K, 210000 kPa	–	1865
353.15 K, 101.3 kPa	814.4	–
353.15 K, 10000 kPa	823.62	–
353.15 K, 20000 kPa	832.14	–
353.15 K, 30000 kPa	839.63	–
353.15 K, 40000 kPa	846.7	–
353.15 K, 50000 kPa	853.22	–
353.15 K, 60000 kPa	859.34	–
353.15 K, 70000 kPa	865.16	–
353.15 K, 80000 kPa	870.61	–
353.15 K, 90000 kPa	875.77	–
353.15 K, 100000 kPa	880.75	–
363.15 K, 101.3 kPa	806.38	1065.9
363.15 K, 10000 kPa	815.94	1130.1
363.15 K, 20000 kPa	824.71	1188.5
363.15 K, 30000 kPa	832.73	1241.2
363.15 K, 40000 kPa	840.08	1289.6
363.15 K, 50000 kPa	846.82	1334.7
363.15 K, 60000 kPa	853.11	1376.5
363.15 K, 70000 kPa	859.26	1415.4
363.15 K, 80000 kPa	864.82	1452.8
363.15 K, 90000 kPa	870.11	1488.9
363.15 K, 100000 kPa	875.14	1522.8
363.15 K, 110000 kPa	–	1556
363.15 K, 120000 kPa	–	1586.9
363.15 K, 130000 kPa	–	1617.1
363.15 K, 140000 kPa	–	1646.6
363.15 K, 150000 kPa	–	1675.1
363.15 K, 170000 kPa	–	1727.6
363.15 K, 190000 kPa	–	1777
363.15 K, 210000 kPa	–	1824.5
373.15 K, 101.3 kPa	797.32	–
373.15 K, 10000 kPa	807.87	–
373.15 K, 20000 kPa	817.14	–
373.15 K, 30000 kPa	825.49	–
373.15 K, 40000 kPa	833.44	–
373.15 K, 50000 kPa	840.48	–
373.15 K, 60000 kPa	847.06	–
373.15 K, 70000 kPa	853.14	–
373.15 K, 80000 kPa	859.2	–
373.15 K, 90000 kPa	864.65	–
373.15 K, 100000 kPa	869.76	–
383.15 K, 101.3 kPa	789.45	1001.3
383.15 K, 10000 kPa	800.55	1071.1
383.15 K, 20000 kPa	810.35	1132.9
383.15 K, 30000 kPa	819.06	1188.3
383.15 K, 40000 kPa	826.96	1239.3
383.15 K, 50000 kPa	834.28	1286.4
383.15 K, 60000 kPa	841.17	1329.7
383.15 K, 70000 kPa	847.62	1370.2
383.15 K, 80000 kPa	853.58	1408.3
383.15 K, 90000 kPa	859.32	1445
383.15 K, 100000 kPa	864.87	1480
383.15 K, 110000 kPa	–	1513.4
383.15 K, 120000 kPa	–	1545.8
383.15 K, 130000 kPa	–	1576.6
383.15 K, 140000 kPa	–	1606.2
383.15 K, 150000 kPa	–	1634.6
383.15 K, 170000 kPa	–	1687.7
383.15 K, 190000 kPa	–	1740.7
383.15 K, 210000 kPa	–	1786.8
393.15 K, 101.3 kPa	780.85	–
393.15 K, 10000 kPa	792.15	–
393.15 K, 20000 kPa	802.27	–
393.15 K, 30000 kPa	811.47	–
393.15 K, 40000 kPa	819.79	–
393.15 K, 50000 kPa	827.43	–
393.15 K, 60000 kPa	834.45	–
393.15 K, 70000 kPa	840.99	–
393.15 K, 80000 kPa	847.2	–
393.15 K, 90000 kPa	852.99	–
393.15 K, 100000 kPa	858.42	–
403.15 K, 101.3 kPa	–	937.8
403.15 K, 10000 kPa	–	1013.4
403.15 K, 20000 kPa	–	1080.3
403.15 K, 30000 kPa	–	1138.6
403.15 K, 40000 kPa	–	1191.3
403.15 K, 50000 kPa	–	1240.5
403.15 K, 60000 kPa	–	1285.9
403.15 K, 70000 kPa	–	1328.1
403.15 K, 80000 kPa	–	1367.6
403.15 K, 90000 kPa	–	1404.6
403.15 K, 100000 kPa	–	1439.8
403.15 K, 110000 kPa	–	1473.4
403.15 K, 120000 kPa	–	1506.4
403.15 K, 130000 kPa	–	1537.5
403.15 K, 140000 kPa	–	1567.3
403.15 K, 150000 kPa	–	1596.2
403.15 K, 170000 kPa	–	1650.9
403.15 K, 190000 kPa	–	1702.8
403.15 K, 210000 kPa	–	1751.8
